Experimental data published in the OligoGym collection.
Where “and” joins values, the source holds several entries; their conditions need not be identical. Equal values may be shown once. After the bases stand the sugars from the 5' end (letter, count) and the backbone: PS all phosphorothioate, else s phosphorothioate and o phosphodiester by linkage. Methylation of C is not given here. e = 2'-O-(2-methoxyethyl) (MOE); k = constrained ethyl (cEt); d = 2'-deoxy (DNA)

Target: SOD1
Details: ASO

## TACAGGGTTTTTATTCA (sugars e2 k2 d9 k2 e2, PS)
HepG2, 5 µM
  target mRNA inhibition: 31%

## TCATCCTTTGGCCCACC (sugars e3 k2 d7 k2 e3, PS)
HepG2, 3 µM
  target mRNA inhibition: 27%

## GGAATGTTTATTGGGCG (sugars e3 k2 d7 k2 e3, PS)
HepG2, 3 µM
  target mRNA inhibition: 15%

## TAAGTGCCATACAGGGTTTT (sugars e5 d10 e5, PS)
HepG2, 5 µM
  target mRNA inhibition: 13%

## GTTTAATGTTTATCAG (sugars kekeddddddddekek, linkages s1 o3 s8 o1 s2)
A431, 0.12 µM
  target mRNA inhibition: 7%
A431, 0.6 µM
  target mRNA inhibition: 7%
A431, 3 µM
  target mRNA inhibition: 41%
A431, 15 µM
  target mRNA inhibition: 66%
HepG2, 0.222 µM
  target mRNA inhibition: 58%
HepG2, 0.667 µM
  target mRNA inhibition: 78%
HepG2, 2 µM
  target mRNA inhibition: 86%
HepG2, 6 µM
  target mRNA inhibition: 94%

## TTCACAGGCTTGAATGA (sugars e3 k2 d7 k2 e3, PS)
HepG2, 3 µM
  target mRNA inhibition: 9%

## GAATGACAAAGAAATTCTGA (sugars e5 d10 e5, PS)
HepG2, 5 µM
  target mRNA inhibition: 0%

## AATCTTCCAAGTGATCA (sugars e2 k2 d9 k2 e2, PS)
HepG2, 5 µM
  target mRNA inhibition: 38%

## ATCACAGAATCTTCAATAGA (sugars e5 d10 e5, PS)
HepG2, 5 µM
  target mRNA inhibition: 11% and 10%

## TCTGCTCGAAATTGATG (sugars e3 k2 d7 k2 e3, PS)
HepG2, 3 µM
  target mRNA inhibition: 34%

## GACAAGTTTAATACCCA (sugars e2 k2 d9 k2 e2, PS)
HepG2, 5 µM
  target mRNA inhibition: 59%

## TGCAACGGAAACCCCAGACG (sugars e5 d10 e5, PS)
HepG2, 4 µM
  target mRNA inhibition: 21%

## TTGCCCAAGTCTCCAACATG (sugars e5 d10 e5, PS)
HepG2, 5 µM
  target mRNA inhibition: 41% and 33%

## TCTACAGCTAGCAGGAT (sugars e3 k2 d7 k2 e3, PS)
HepG2, 3 µM
  target mRNA inhibition: 51%

## AAAGTGAGGACCTGCAC (sugars e3 k2 d7 k2 e3, PS)
HepG2, 3 µM
  target mRNA inhibition: 20%

## ATCCAAGGGAATGTTTA (sugars e2 k2 d9 k2 e2, PS)
HepG2, 4 µM
  target mRNA inhibition: 39%

## TGTGATTTAAGTCTGGCAAA (sugars e5 d10 e5, PS)
HepG2, 5 µM
  target mRNA inhibition: 34%

## GTGATTTAAGTCTGGCA (sugars e2 k2 d8 k2 e3, PS)
HepG2, 5 µM
  target mRNA inhibition: 54%

## CGCCCACTCTGGCCCCA (sugars e3 k2 d7 k2 e3, PS)
HepG2, 3 µM
  target mRNA inhibition: 14%

## AATTTGGATTCTTTTAATAG (sugars e5 d10 e5, PS)
HepG2, 5 µM
  target mRNA inhibition: 14%

## TTTTAAGATTACAGTGTTTA (sugars e5 d10 e5, PS)
HepG2, 5 µM
  target mRNA inhibition: 13%

## AAGTCATCTGCTTTTTC (sugars e3 k2 d7 k2 e3, PS)
HepG2, 3 µM
  target mRNA inhibition: 83%

## CAGGGTTTTTATTCACA (sugars e3 k2 d7 k2 e3, PS)
HepG2, 3 µM
  target mRNA inhibition: 17%

## CTGCACTGGGCCGTCGCCCT (sugars e5 d10 e5, PS)
HepG2, 4 µM
  target mRNA inhibition: 24%

## AATGGTCTCCTGAGAGTGAG (sugars e5 d10 e5, PS)
HepG2, 5 µM
  target mRNA inhibition: 22%

## GTCTGGCAAAATACAGG (sugars e3 k2 d7 k2 e3, PS)
HepG2, 3 µM
  target mRNA inhibition: 24%

## GCGACTACTTTATAGGCCAG (sugars e5 d10 e5, PS)
HepG2, 4 µM
  target mRNA inhibition: 19%

## GCCCTTCAGCACGCACA (sugars e2 k2 d8 k2 e3, PS)
HepG2, 0.1875 µM
  target mRNA inhibition: 8%
HepG2, 0.75 µM
  target mRNA inhibition: 38%
HepG2, 3 µM
  target mRNA inhibition: 74%
HepG2, 4 µM
  target mRNA inhibition: 75%
HepG2, 12 µM
  target mRNA inhibition: 96%

## GTTTATCAGGATACATT (sugars e2 k2 d8 k2 e3, PS)
HepG2, 0.1875 µM
  target mRNA inhibition: 41%
HepG2, 0.75 µM
  target mRNA inhibition: 73%
HepG2, 3 µM
  target mRNA inhibition: 89%
HepG2, 4 µM
  target mRNA inhibition: 85%
HepG2, 12 µM
  target mRNA inhibition: 92% and 95%

## TCCTTTGGCCCACCGTGTTT (sugars e5 d10 e5, PS)
HepG2, 5 µM
  target mRNA inhibition: 30% and 23%

## TTCACAGGCTTGAATGA (sugars e2 k2 d8 k2 e3, PS)
HepG2, 5 µM
  target mRNA inhibition: 20%

## AAAGTCACACAATTACACTT (sugars e5 d10 e5, PS)
HepG2, 5 µM
  target mRNA inhibition: 15%

## CCATAACTCGCTAGGCCACG (sugars e5 d10 e5, PS)
HepG2, 4 µM
  target mRNA inhibition: 22%

## TACAGTGTTTAATGTTTA (sugars e5 d8 e5, linkages s1 o3 s9 o2 s2)
A431, 0.12 µM
  target mRNA inhibition: 3%
A431, 0.6 µM
  target mRNA inhibition: 0%
A431, 3 µM
  target mRNA inhibition: 1%
A431, 15 µM
  target mRNA inhibition: 20%
HepG2, 0.222 µM
  target mRNA inhibition: 13%
HepG2, 0.667 µM
  target mRNA inhibition: 46%
HepG2, 2 µM
  target mRNA inhibition: 70%
HepG2, 6 µM
  target mRNA inhibition: 57%

## GGATAACAGATGAGTTA (sugars e2 k2 d8 k2 e3, PS)
HepG2, 4 µM
  target mRNA inhibition: 63%

## AATCAGTTTCTCACTAC (sugars e2 k2 d9 k2 e2, PS)
HepG2, 5 µM
  target mRNA inhibition: 53%

## TTAATGTTTATCAGGAT (sugars e2 k2 d9 k2 e2, linkages s1 o3 s9 o1 s2)
A431, 0.12 µM
  target mRNA inhibition: 12%
A431, 0.6 µM
  target mRNA inhibition: 48%
A431, 3 µM
  target mRNA inhibition: 54%
A431, 15 µM
  target mRNA inhibition: 72%

## TCTGCTTTTTCATGGAC (sugars e3 k2 d7 k2 e3, PS)
HepG2, 3 µM
  target mRNA inhibition: 55%

## AGTGTTTAATGTTTATC (sugars e3 k2 d7 k2 e3, PS)
HepG2, 0.1875 µM
  target mRNA inhibition: 52%
HepG2, 0.75 µM
  target mRNA inhibition: 78%
HepG2, 3 µM
  target mRNA inhibition: 67% and 86%
HepG2, 12 µM
  target mRNA inhibition: 85%
